Test results as given in paper PMC9511441, “Semisynthetic teicoplanin derivatives with dual antimicrobial activity against SARS-CoV-2 and multiresistant bacteria” (Scientific Reports, 2022).
Like-named read-outs stand apart in the source and are kept apart here.

Legend:
[1] = tested on: Escherichia coli ATCC 25218; test: MIC against Gram-negative strain; settings: ATCC25218
[2] = target: T1, human recombinant cathepsin L (Homo sapiens, UniProt P07711); test: biochemical; type: biochemical; settings: read-out: Cathepsin L IC50; pH 5.5, Z-Phe-Arg-AMC substrate
T1 construct: made in house; host or cells: Escherichia coli
T1 sequence (P07711 114-333): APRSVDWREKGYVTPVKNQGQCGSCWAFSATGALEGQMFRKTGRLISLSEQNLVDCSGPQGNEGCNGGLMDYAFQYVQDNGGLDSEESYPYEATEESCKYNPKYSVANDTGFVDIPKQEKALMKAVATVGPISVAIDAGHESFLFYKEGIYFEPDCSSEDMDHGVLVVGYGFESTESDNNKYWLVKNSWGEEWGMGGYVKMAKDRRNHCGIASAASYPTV

[3] = tested on: S.pyogenes; test: MIC, broth microdilution; type: cell-based; settings: Streptococcus pyogenes
[4] = tested on: E. faecalis; test: MIC, broth microdilution; type: cell-based; settings: Enterococcus faecalis
[5] = tested on: S. aureus; test: MIC, broth microdilution; type: cell-based; settings: Staphylococcus aureus
[6] = tested on: S. haemolyticus; test: MIC, broth microdilution; type: cell-based; settings: Staphylococcus haemolyticus
[7] = tested on: Klebsiella pneumoniae ST258 clone K 160/09; test: MIC against Gram-negative strain; settings: Klebsiella pneumoniae
[8] = tested on: S. aureus ATCC29213; test: Fluorescent competition assay, release of fluorescent vancomycin; settings: cells saturated with FL-VAN, Fig. 7 left panel
[9] = tested on: VeroE6 cells; test: Cytotoxicity in mock-infected VeroE6 cells (XTT); type: cell-based, African green monkey; settings: mock-infected Vero E6 cells, three days, XTT
[10] = tested on: E. faecium; test: microbe, parasite or virus in culture; type: cell-based; settings: Enterococcus faecium
[11] = tested on: S. epidermidis; test: microbe, parasite or virus in culture; type: cell-based; settings: Staphylococcus epidermidis
[12] = tested on: Acinetobacter baumannii ATCC BAA1605; test: MIC against Gram-negative strain; settings: Acinetobacter baumannii, ATCCBAA1605
[13] = tested on: Pseudomonas aeruginosa ATCC 27853; test: MIC against Gram-negative strain; settings: ATCC27853
[14] = tested on: Calu-3 cells; test: Cytotoxicity in mock-infected Calu-3 cells (XTT); settings: read-out: CC50, Calu-3 cells, three days
[15] = tested on: HEL cells; test: Cytotoxicity in mock-infected HEL cells (MTS); type: cell-based, human; settings: mock-infected HEL cells, MTS, mean of 2–3 tests
[16] = tested on: SARS-CoV-2 pseudovirus; test: microbe, parasite or virus in culture; type: cell-based; settings: cathepsin-dependent endosomal pathway
[17] = tested on: SARS-CoV-2 pseudovirus; test: microbe, parasite or virus in culture; type: cell-based; settings: A549-AT cells, TMPRSS2-mediated uptake
[18] = read-out: MIC value, S.pyogenes H232
[19] = read-out: MIC value, S.pyogenes H550
[20] = read-out: MIC value, S.pyogenes H578
[21] = read-out: Average MIC value, E. faecalis VAN^R,TEI^R/VanA, 1 strain
[22] = read-out: Average MIC value, E. faecalis VAN^S, TEI^S, 2 strains
[23] = read-out: MIC value, E.faecalis JH2-2
[24] = read-out: MIC value, E.faecalis OG1RF
[25] = read-out: MIC value, E.faecalis V583, VAN,TEI/VanA
[26] = ATCC 29213 / MSSA, read-out: MIC value, S. aureus ATCC29213, MSSA
[27] = MRSA / USA300, read-out: MIC value, S. aureus USA300, CA-MRSA
[28] = MRSA, read-out: Average MIC value, S. aureus CA-MRSA, 1 strain
[29] = MRSA, read-out: Average MIC value, S. aureus MRSA, 7 strains
[30] = MRSA, read-out: MIC value, S. aureus 73OL, MRSA
[31] = MRSA, read-out: MIC value, S. aureus 214OL, MRSA
[32] = MRSA, read-out: MIC value, S. aureus 1041OL, MRSA
[33] = MRSA, read-out: MIC value, S. aureus A6918, MRSA
[34] = MRSA, read-out: MIC value, S. aureus A6919, MRSA
[35] = MRSA, read-out: MIC value, S. aureus Mu50, MRSA
[36] = MRSA, read-out: MIC value, S. aureus N315, MRSA
[37] = MSSA / NEWMAN, read-out: MIC value, S. aureus Newman, MSSA
[38] = MSSA, read-out: Average MIC value, S. aureus MSSA, 4 strains
[39] = MSSA, read-out: MIC value, S. aureus MSSA476, MSSA
[40] = MSSA, read-out: MIC value, S. aureus SA564, MSSA
[41] = S. haemolyticus mecA, 6 strains, read-out: Average MIC value
[42] = S.haemolyticus DALB_R1, mecA, read-out: MIC value
[43] = S.haemolyticus DALB_R2, mecA, read-out: MIC value
[44] = S.haemolyticus DALB_R3, mecA, read-out: MIC value
[45] = S.haemolyticus DALB_R4, mecA, read-out: MIC value
[46] = S.haemolyticus DALB_R5, mecA, read-out: MIC value
[47] = S.haemolyticus ORI_R1, mecA, read-out: MIC value
[48] = read-out: Average MIC value, E. faecium VAN^R,TEI^R/VanA, 8 strains
[49] = read-out: Average MIC value, E. faecium VAN^S, TEI^S, 1 strain
[50] = read-out: MIC value, E.faecium E335, VAN,TEI,LNZ/VanA
[51] = read-out: MIC value, E.faecium E355, VAN,TEI,LNZ/VanA
[52] = read-out: MIC value, E.faecium E832, VAN,TEI,LNZ/VanA
[53] = read-out: MIC value, E.faecium E854, VAN,TEI,LNZ/VanA
[54] = read-out: MIC value, E.faecium E859, VAN,TEI,LNZ/VanA
[55] = read-out: MIC value, E.faecium E1114, VAN,TEI,LNZ/VanA
[56] = read-out: MIC value, E.faecium E1131, VAN,TEI,LNZ/VanA
[57] = read-out: MIC value, E.faecium E1132, VAN,TEI,LNZ/VanA
[58] = read-out: MIC value, E.faecium TX0016
[59] = read-out: Average MIC value, S. epidermidis mecA, 6 strains
[60] = read-out: MIC value, S.epidermidis ORI_R1, mecA
[61] = read-out: MIC value, S.epidermidis ORI_R2, mecA
[62] = read-out: MIC value, S.epidermidis ORI_R3, mecA
[63] = read-out: MIC value, S.epidermidis ORI_R4, mecA
[64] = read-out: MIC value, S.epidermidis TEI_R1, mecA
[65] = read-out: MIC value, S.epidermidis TEI_R2, mecA

CC(=O)N[C@H]1[C@H](O[C@@H]2c3ccc(c(Cl)c3)Oc3cc4cc(c3O)Oc3ccc(cc3Cl)C[C@H]3NC(=O)[C@H](NC(=O)c5cc(OCCCSCCNC(=N)N)c(OCCCSCCNC(=N)N)c(OCCCSCCNC(=N)N)c5)c5ccc(O)c(c5)Oc5cc(O)cc(c5)[C@H](NC3=O)C(=O)N[C@H]4C(=O)N[C@H]3C(=O)N[C@@H]2C(=O)N[C@H](C(=O)O)c2cc(O)cc(O)c2-c2cc3ccc2O)O[C@H](CO)[C@@H](O)[C@@H]1O [Compound 7]
512 µg/mL: MIC [7]
> 100 µM: CC50 [9] | CC50 [14] | CC50 [15]
1 µg/mL: MIC [5, 27] | MIC [5, 28] | MIC [5, 30] | MIC [5, 31] | MIC [5, 32] | MIC [5, 33] | MIC [5, 34] | MIC [5, 35] | MIC [5, 37] | MIC [5, 40] | MIC [6, 42] | MIC [6, 43]
1.12 µg/mL: MIC [5, 38]
2 µg/mL: MIC [4, 22] | MIC [4, 23] | MIC [4, 24] | MIC [5, 39] | MIC [6, 44] | MIC [6, 45] | MIC [10, 49] | MIC [10, 58]
no effect: Outcompeting fluorescent vancomycin from S. aureus (in words) [8]
256 µg/mL: MIC [1]
0.89 µg/mL: MIC [5, 29]
128 µg/mL: MIC [12] | MIC [13]
4.5 ± 1 µM: IC50 [2]
0.5 µg/mL: MIC [5, 26] | MIC [6, 46] | MIC [6, 47]
0.25 µg/mL: MIC [3, 18] | MIC [3, 19] | MIC [3, 20] | MIC [5, 36] | MIC [11, 59] | MIC [11, 60] | MIC [11, 61] | MIC [11, 62] | MIC [11, 63] | MIC [11, 64] | MIC [11, 65]
1.2 µg/mL: MIC [6, 41]
> 8 µg/mL: MIC [4, 21] | MIC [4, 25] | MIC [10, 48] | MIC [10, 50] | MIC [10, 51] | MIC [10, 52] | MIC [10, 53] | MIC [10, 54] | MIC [10, 55] | MIC [10, 56] | MIC [10, 57]

CC(=O)N[C@H]1[C@H](O[C@@H]2c3ccc(c(Cl)c3)Oc3cc4cc(c3O)Oc3ccc(cc3Cl)C[C@H]3NC(=O)[C@H](n5cc(COCCCC(F)(F)C(F)(F)C(F)(F)C(F)(F)C(F)(F)C(F)(F)F)nn5)c5ccc(O)c(c5)Oc5cc(O)cc(c5)[C@H](NC3=O)C(=O)N[C@H]4C(=O)N[C@H]3C(=O)N[C@@H]2C(=O)N[C@H](C(=O)O)c2cc(O)cc(O)c2-c2cc3ccc2O)O[C@H](CO)[C@@H](O)[C@@H]1O [Compound 4]
highly effective: Inhibition of pseudovirus entry in Vero cells (in words) [16]
> 8 µg/mL: MIC [4, 21] | MIC [4, 25] | MIC [10, 48] | MIC [10, 50] | MIC [10, 51] | MIC [10, 52] | MIC [10, 53] | MIC [10, 54] | MIC [10, 55] | MIC [10, 56] | MIC [10, 57]
1.75 µg/mL: MIC [5, 38]
0.5 µg/mL: MIC [11, 64]
1.71 µg/mL: MIC [5, 29]
0.812 µg/mL: MIC [11, 59]
93 ± 11 µM: CC50 [14]
6.8 µg/mL: MIC [6, 41]
0.125 µg/mL: MIC [11, 65]
> 100 µM: CC50 [9] | CC50 [15]
66 ± 1 µM: IC50 [2]
8 µg/mL: MIC [6, 42] | MIC [6, 43] | MIC [6, 44] | MIC [6, 45] | MIC [6, 47]
0.25 µg/mL: MIC [4, 22] | MIC [4, 23] | MIC [4, 24] | MIC [10, 49] | MIC [10, 58] | MIC [11, 63]
0.0625 µg/mL: MIC [3, 18] | MIC [3, 19] | MIC [3, 20]
active, though less potent: Inhibition of pseudovirus entry in A549-AT cells (in words) [17]
1 µg/mL: MIC [5, 26] | MIC [5, 33] | MIC [5, 34] | MIC [6, 46] | MIC [11, 61] | MIC [11, 62]
2 µg/mL: MIC [5, 27] | MIC [5, 28] | MIC [5, 30] | MIC [5, 31] | MIC [5, 32] | MIC [5, 35] | MIC [5, 36] | MIC [5, 37] | MIC [5, 39] | MIC [5, 40] | MIC [11, 60]
